The source of these data is publication PMC5613062 (Investigational New Drugs, 2017).

Like-named read-outs stand apart in the source and are kept apart here.

Details of data set [1]: method as in LoRusso et al 2005. The settings on record: Phase I-II trial; ref LoRusso et al 2005; cited from earlier work.
The nature of data set [2]: Pharmacokinetics alone and in combination, selumetinib + temsirolimus arm. The settings on record: for Cmax / AUC(0-t) / AUC(0–12): geometric mean (% CV); for AUC(0-t): read-out: AUC(0–8); for AUC(0–12): read-out: AUC(0–12); for tmax: median (range). Format: in vivo, human.
Description: PK parameters were derived using non-compartmental analysis. Cmax and tmax were determined by visual inspection of the plasma concentration-time profiles. AUC(0–12) was calculated by the linear trapezoidal rule. Where more than one maximum occurred, the reported value was assigned to the first occurrence.
On the set-up of data set [3]: method as in product label. The following applies: ref product label; cited from earlier work.
Where [4] appears, read: human, plasma, iv, dosed alone, selumetinib 50 mg cohort (N = 25), temsirolimus 25 mg IV.
[5] abbreviates: human, plasma, iv, dosed alone, selumetinib 75 mg cohort (N = 6), temsirolimus 25 mg IV.
Setting [6] is: human, plasma, iv, dosed in combination, selumetinib 50 mg BID (N = 22) + temsirolimus 25 mg IV.
[7] abbreviates: human, plasma, iv, dosed in combination, selumetinib 75 mg BID (N = 5) + temsirolimus 25 mg IV.

Turning to `O=C(NOC[C@H](O)CO)c1ccc(F)c(F)c1Nc1ccc(I)cc1F` [PD-0325901], in data set [1], the patients reporting rash is listed as 49%.

As to `CO[C@H]1C[C@@H]2CC[C@@H](C)[C@@](O)(O2)C(=O)C(=O)N2CCCC[C@H]2C(=O)O[C@H]([C@H](C)C[C@@H]2CC[C@@H](OC(=O)C(C)(CO)CO)[C@H](OC)C2)CC(=O)[C@H](C)/C=C(\C)[C@@H](O)[C@@H](OC)C(=O)[C@H](C)C[C@H](C)/C=C/C=C/C=C/1C` [Temsirolimus], the Cmax in data set [2] (dosed alone, selumetinib 75 mg cohort (N = 6), temsirolimus 25 mg IV) was 749.2 (24.61) [5] ng/mL; in data set [2] (human, plasma, iv, dosed alone, selumetinib 50 mg cohort (N = 25), temsirolimus 25 mg IV, read-out: Cmax), 669 ng/mL; in data set [2] (human, plasma, iv, dosed in combination, selumetinib 50 mg BID (N = 22) + temsirolimus 25 mg IV, read-out: Cmax), 651 ng/mL; in data set [2] (human, plasma, iv, dosed in combination, selumetinib 75 mg BID (N = 5) + temsirolimus 25 mg IV, read-out: Cmax), 695 ng/mL. For the same compound, the AUC(0-t) stood at 1580 ng·h/mL in data set [2] (setting [4]), 1740 ng·h/mL in data set [2] (setting [5]), 1460 ng·h/mL in data set [2] (setting [6]) and 1540 ng·h/mL in data set [2] (setting [7]). Further, the AUC(0–12) in data set [2] (setting [4]) came out at 1880 ng·h/mL; in data set [2] (setting [5]), 1910 ng·h/mL; in data set [2] (setting [6]), 1610 ng·h/mL; in data set [2] (setting [7]), 1740 ng·h/mL. In addition, the tmax is given as 1.0 (0.5–1.5) h in data set [2] (dosed in combination, selumetinib 50 mg BID (N = 22) + temsirolimus 25 mg IV) and 0.5 (0.5–1.0) h in data set [2] (dosed in combination, selumetinib 75 mg BID (N = 5) + temsirolimus 25 mg IV). Also, the “PK parameters when administered alone and in combination” value in data set [2] (selumetinib + temsirolimus arm) is given as “similar”. For the same compound, the “most common (incidence ≥30%) adverse reactions” value in data set [3] was “rash, asthenia, mucositis, nausea, edema, and anorexia”.
